Experimental data from patent US6268391A, “Benzylidene-1,3-dihydro-indol-2-one derivatives a receptor tyrosine kinase inhibitors, particularly of Raf kinases” (Glaxo Wellcome Inc., priority 1997, dated 2001).

Target: T1, Human cRaf1 (Homo sapiens, UniProt P04049)
T1 construct: poly-histidine (C); made in house
Experiment: Raf kinase assay (cRaf1 assay / Raf/MEK cascade assay)
Assay type: biochemical
Conditions: Table 3; read-out: Raf Kinase activity
Protocol: The potency of cRaf1 dependent kinase activity was measured using one of two assay formats. The first measured cRaf1 catalyzed phosphorylation of MEK1, the natural substrate for cRaf1. This assay is referred to as the cRaf1 assay. The second measured the ability of cRaf1 to phosphorylate and activate MEK1. This assay is referred to as the Raf/MEK cascade assay.
Human cRaf1 tagged with poly histidine at the carboxyterminus was expressed in a baculovirus expression system and purfied by Ni chelate affinity chromatography. Human MEK1 was expressed in E. coli as a fusion protein with Glutathione-S-transferase, and purified by glutathione sepharose affinity chromatography. […] Reactions contained cRaf1 (20 nM), MEK1 (100-500 nM), [γ-^32 P]ATP ([…]), Mg^2+ (10 mM), MOPS (50 mM, pH 7.5). Reactions were incubated at room temperature for periods of time ranging from 20-120 minutes. Inhibitors were diluted in 100% DMSO prior to addition to the assay. Reactions were terminated with an equal volume of 0.5% phosphoric acid. MEK1 phosphorylation was detected by scintillation counting following collection of protein onto phosphocellulose filters.
Human cRaf1 and MEK1 were purified as described above. A peptide substrate phosphorylated by MEK1 was used as the final phosphoryl group acceptor. […] Assay conditions were the same as those described above except for the following modifications. Reactions contained cRaf1 (1-5 nM), MEK1 (60 nM), and peptide ([…]).

T1 sequence (P04049 whole entry): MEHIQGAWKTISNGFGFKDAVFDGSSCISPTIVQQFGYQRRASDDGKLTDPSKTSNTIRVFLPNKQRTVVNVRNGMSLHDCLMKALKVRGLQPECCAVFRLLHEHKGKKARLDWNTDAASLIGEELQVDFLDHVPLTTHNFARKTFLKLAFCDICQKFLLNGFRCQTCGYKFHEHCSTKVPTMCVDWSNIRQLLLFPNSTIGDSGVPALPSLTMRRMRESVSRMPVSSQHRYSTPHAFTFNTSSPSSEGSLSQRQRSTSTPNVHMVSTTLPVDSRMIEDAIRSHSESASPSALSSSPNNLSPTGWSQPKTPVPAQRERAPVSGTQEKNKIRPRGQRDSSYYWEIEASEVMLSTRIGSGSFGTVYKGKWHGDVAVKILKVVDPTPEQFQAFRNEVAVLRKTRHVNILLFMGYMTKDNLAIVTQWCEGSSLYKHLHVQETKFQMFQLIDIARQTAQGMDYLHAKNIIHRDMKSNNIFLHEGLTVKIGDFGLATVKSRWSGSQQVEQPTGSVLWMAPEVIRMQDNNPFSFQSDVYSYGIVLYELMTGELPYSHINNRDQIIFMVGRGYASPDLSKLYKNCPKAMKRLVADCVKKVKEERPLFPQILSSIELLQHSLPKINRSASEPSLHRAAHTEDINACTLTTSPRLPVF

IC50 [nM]	SMILES
< 1000	COc1cc(C=C2C(=O)Nc3ccc(Br)cc32)cc(Cl)c1O [Example 82, 5-Bromo-3-(3-chloro-4-hydroxy-5-methoxy-benzylidene)-1,3-dihydro-indol-2-one]
< 1000	C=Cc1ccc2c(c1)NC(=O)C2=Cc1cc(Br)c(O)c(Br)c1 [Example 176, 3-[(3,5-Dibromo-4-hydroxyphenyl)methylidene]-6-vinyl-1,3-dihydro-2H-indol-2-one]
< 1000	CCN(CCO)CC(=O)c1ccc2c(c1)C(=Cc1cc(Br)c(O)c(Br)c1)C(=O)N2 [Example 108, 3-(3,5-Dibromo-4-hydroxy-benzylidene)-5-{2-[N-ethyl-N-(2-hydroxy-ethyl)-amino]-acetyl}-1,3-dihydro-indol-2-one]
< 1000	O=C1Nc2ccc(C(=O)C[n+]3ccccc3)cc2C1=Cc1cc(Br)c(O)c(Br)c1 [Example 77, 3-(3,5-Dibromo-4-hydroxy-benzylidene)-5-(2-(N-pyridinium)-acetyl)-1,3-dihydro-indol-2-one chloride]
< 1000	O=C1Nc2c(Br)cccc2C1=Cc1cc(Cl)c(O)c(Cl)c1 [Example 67, 7-Bromo-3-(3,5-dichloro-4-hydroxy-benzylidene)-1,3-dihydro-indol-2-one]
< 1000	CCOc1cc(C=C2C(=O)Nc3ccc(C(=O)c4ccco4)cc32)cc(Br)c1O [Example 23]
< 1000	Nc1nc(-c2ccc3c(c2)C(=Cc2cc(Cl)c(O)c(Cl)c2)C(=O)N3)cs1 [Example 134, 5-(2-Amino-thiazol-4-yl)-3-(3,5-dichloro-4-hydroxy-benzylidene)-1,3-dihydro-indol-2-one]
< 1000	O=C1Nc2ccc(Cl)cc2C1=Cc1cc(Cl)c(O)c(Cl)c1 [Example 39, 5-Chloro-3-(3,5-dichloro-4-hydroxy-benzylidene)-1,3-dihydro-indol-2-one]
< 1000	O=C1Nc2ccc(-c3cn4ccccc4n3)cc2C1=Cc1cc(Br)c(O)c(Br)c1 [Example 31, 3-(3,5-Dibromo-4-hydroxy-benzylidene)-5-(imidazo[1,2a]pyridin-2-yl)-1,3-dihydro-indol-2-one]
< 1000	O=C1Nc2ccc(C(=O)CN3CCSC3)cc2C1=Cc1cc(Br)c(O)c(Br)c1 [Example 76, 3-(3,5-Dibromo-4-hydroxy-benzylidene)-5-(2-(thiazolidin-3-yl)-acetyl)-1,3-dihydro-indol-2-one]
< 1000	O=C1Nc2ccc3[nH]nnc3c2C1=Cc1cc(Br)c(O)c(Br)c1 [Example 132, 8-(3,5-Dibromo-4-hydroxy-benzylidene)-6,8-dihydro-3H-1,2,3,6-tetraaza-as-indacen-7-one]

More lines, now with the values behind:

SMILES	IC50 [nM]
O=C1Nc2ccc(C(=O)NCc3ccncc3)cc2C1=Cc1cc(Br)c(O)c(Br)c1 [Example 181, 3-[(3,5-dibromo-4-hydroxyphenyl)methylidene]-2-oxo-N-(4-pyridinylmethyl)-1,2-dihydro-3H-indole-5-carboxamide]	< 1000
NS(=O)(=O)c1ccc(-c2ccc3c(c2)C(=Cc2cc(Br)c(O)c(Br)c2)C(=O)N3)cc1 [Example 175, 4-3-[(3,5-Dibromo-4-hydroxyphenyl)methylidene]-2-oxo 2,3-dihydro-1H-indol-5-ylbenzenesulfonamide]	< 1000
O=C1Nc2ccc(Cl)cc2C1=Cc1cc([N+](=O)[O-])c(O)c([N+](=O)[O-])c1 [Example 52, 5-Chloro-3-(3,5-dinitro-4-hydroxy-benzylidene)-1,3-dihydro-indol-2-one]	< 1000
O=C1Nc2c(I)cccc2C1=Cc1cc(Br)c(O)c(Br)c1 [Example 64, 3-(3,5-Dibromo-4-hydroxy-benzylidene)-7-iodo-1,3-dihydro-indol-2-one]	< 1000
Cc1ccc2c3c(ccc2n1)NC(=O)C3=Cc1cc(Br)c(O)c(Br)c1 [Example 165, 1-[(3,5-Dibromo-4-hydroxyphenyl)methylidene]-7-methyl-1,3-dihydro-2H-pyrrolo[3,2-f]quinolin-2-one]	< 1000
CC(C)CC(=O)c1ccc2c(c1)C(=Cc1cc(Cl)c(O)c(Cl)c1)C(=O)N2 [Example 9]	< 1000
O=C1Nc2ccc(C(=O)CN(CCO)CCO)cc2C1=Cc1cc(Br)c(O)c(Br)c1 [Example 74, 5-{2-[Bis-(2-hydroxy-ethyl)-amino]-acetyl}-3-(3,5-dibromo-4-hydroxy-benzylidene)-1,3-dihydro-indol-2-one]	< 1000
CN(C)CC(=O)c1ccc2c(c1)C(=Cc1cc(Br)c(O)c(Br)c1)C(=O)N2 [Example 107, 3-(3,5-Dibromo-4-hydroxy-benzylidene)-5-(2-dimethylamino-acetyl)-1,3-dihydro-indol-2-one]	< 1000
O=C1Nc2ccc(-c3nnn[nH]3)cc2C1=Cc1cc(Br)c(O)c(Br)c1 [Example 142, 3-(3,5-Dibromo-4-hydroxy-benzylidene)-5-(1H-tetrazol-5-yl)-1,3-dihydro-indol-2-one]	< 1000
COc1cc(C=C2C(=O)Nc3ccc(Cl)cc32)cc(Br)c1O [Example 51, 3-(3-Bromo-4-hydroxy-5-methoxy-benzylidene)-5-chloro-1,3-dihydro-indol-2-one]	< 1000
CNc1nc(-c2ccc3c(c2)C(=Cc2cc(Br)c(O)c(Br)c2)C(=O)N3)cs1 [Example 140]	< 1000
O=C1Nc2ccc(C(=NO)c3ccccc3)cc2C1=Cc1cc(Br)c(O)c(Br)c1 [Example 97, 3-(3,5-Dibromo-4-hydroxy-benzylidene)-5-((hydroxyimino)-phenyl-methyl)-1,3-dihydro-indol-2-one]	< 1000
O=C1Nc2cc(-c3ccccc3)ccc2C1=Cc1cc(Br)c(O)c(Br)c1 [Example 112, 3-(3,5-Dibromo-4-hydroxy-benzylidene)-6-phenyl-1,3-dihydro-indol-2-one]	1000 to 10000
CCC(=O)c1ccc2c(c1)C(=Cc1cc(Br)c(O)c(Br)c1)C(=O)N2 [Example 32, 3-(3,5-Dibromo-4-hydroxy-benzylidene)-5-propionyl-1,3-dihydro-indol-2-one]	< 1000
O=C1Nc2ccc(C(=O)c3cccnc3)cc2C1=Cc1cc(Br)c(O)c(Br)c1 [Example 11]	< 1000
O=C1Nc2ccc(Br)cc2C1=Cc1cc(Cl)c(O)c(Cl)c1 [Example 41, 5-Bromo-3-(3,5-dichloro-4-hydroxy-benzylidene)-1,3-dihydro-indol-2-one]	< 1000
CCC(=O)c1ccc2c(c1)C(=Cc1cc(Cl)c(O)c(Cl)c1)C(=O)N2 [Example 98, 3-(3,5-Dichloro-4-hydroxy-benzylidene)-5-propionyl-1,3-dihydro-indol-2-one]	< 1000
CNc1nc(-c2ccc3c(c2)C(=Cc2cc(Cl)c(O)c(Cl)c2)C(=O)N3)cs1 [Example 141]	< 1000
O=C1Nc2ccc(I)cc2C1=Cc1cc(Br)c(OC(=O)N2CCOCC2)c(Br)c1 [Example 151, 2,6-Dibromo-4-[(5-iodo-2-oxo-1,2-dihydro-3H-indol-3-ylidene)methyl]phenyl 4-morpholinecarboxylate]	10000 to 100000
COc1cc(C=C2C(=O)Nc3ccc(I)cc32)cc(Br)c1O [Example 43, 3-(3-Bromo-4-hydroxy-5-methoxy-benzylidene)-5-iodo-1,3-dihydro-indol-2-one]	< 1000
CCOc1cc(C=C2C(=O)Nc3ccc(OC(F)(F)F)cc32)cc(Br)c1O [Example 59, 3-(3-Bromo-5-ethoxy-4-hydroxy-benzylidene)-5-trifluoromethoxy-1,3-dihydro-indol-2-one]	< 1000
